The source of these data is paper PMC4138887, “Natural Product Polyamines That Inhibit Human Carbonic Anhydrases” (BioMed Research International, 2014).

The pIC50 is the negative decadic logarithm of the IC50, by convention in mol/L.

One assay addresses T1, hCA XII (Homo sapiens, UniProt O43570).
T1 construct: made in house; host or cells: E. coli
The assay can be described thus: stopped-flow CO2 hydration CA inhibition assay. The assay is classed as biochemical. As to conditions: recombinant human CA XII; stopped-flow CO2 hydrase assay; errors ±5%, three determinations; read-out: K i CA XII.

The next assay concerns the target T2, hCA II (Homo sapiens, UniProt P00918).
T2 construct: made in house; host or cells: E. coli
Put plainly: stopped-flow CO2 hydration CA inhibition assay. The assay is classed as biochemical. The note with it: recombinant human CA II; stopped-flow CO2 hydrase assay; errors ±5%, three determinations; read-out: K i CA II.

A further assay deals with T3, hCA XIV (Homo sapiens, UniProt Q9ULX7).
T3 construct: made in house; host or cells: E. coli
T3 sequence (Q9ULX7 16-337): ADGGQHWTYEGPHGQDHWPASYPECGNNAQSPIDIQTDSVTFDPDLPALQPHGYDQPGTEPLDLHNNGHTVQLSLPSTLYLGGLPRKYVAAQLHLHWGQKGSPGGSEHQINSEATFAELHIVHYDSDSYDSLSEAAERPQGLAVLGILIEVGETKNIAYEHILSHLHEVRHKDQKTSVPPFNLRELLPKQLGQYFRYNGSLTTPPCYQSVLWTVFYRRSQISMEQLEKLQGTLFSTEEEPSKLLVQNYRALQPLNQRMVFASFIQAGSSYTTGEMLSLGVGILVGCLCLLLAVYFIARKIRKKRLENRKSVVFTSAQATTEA
Put plainly: stopped-flow CO2 hydration CA inhibition assay. The note with it: recombinant human CA XIV; stopped-flow CO2 hydrase assay; errors ±5%, three determinations; read-out: K i CA XIV. The format is biochemical.

The target of the next assay is T4, hCA IX (Homo sapiens, UniProt Q16790).
T4 construct: made in house; host or cells: E. coli
The assay can be described thus: stopped-flow CO2 hydration CA inhibition assay. The format is biochemical. The note with it: recombinant human CA IX; stopped-flow CO2 hydrase assay; errors ±5%, three determinations; read-out: K i CA IX.

Another assay addresses T5, hCA I (Homo sapiens, UniProt P00915).
T5 construct: made in house; host or cells: E. coli
Put plainly: stopped-flow CO2 hydration CA inhibition assay. The note with it: recombinant human CA I; stopped-flow CO2 hydrase assay; errors ±5%, three determinations; read-out: K i CA I. The assay is classed as biochemical.

Another assay concerns the target T6, hCA IV (Homo sapiens, UniProt P22748).
T6 construct: made in house; host or cells: E. coli
Put plainly: stopped-flow CO2 hydration CA inhibition assay. The assay is classed as biochemical. As to conditions: recombinant human CA IV; stopped-flow CO2 hydrase assay; errors ±5%, three determinations; read-out: K i CA IV.

The test system of the next assay is Pseudomonas aeruginosa. Also on record: method as in PMID 22515429. As to conditions: antibacterial, cited from earlier work.
Assay [1] relates to drug sensitive Plasmodium falciparum parasite line (3D7). Also on record: method as in earlier work. As to conditions: drug sensitive parasite line 3D7; read-out: IC50 towards Plasmodium falciparum 3D7; cited from earlier work.

pIC50, pKi: −log10 of the molar value. In brackets after ≈: the same amount, converted by molar mass.

T6 sequence (P22748 19-312): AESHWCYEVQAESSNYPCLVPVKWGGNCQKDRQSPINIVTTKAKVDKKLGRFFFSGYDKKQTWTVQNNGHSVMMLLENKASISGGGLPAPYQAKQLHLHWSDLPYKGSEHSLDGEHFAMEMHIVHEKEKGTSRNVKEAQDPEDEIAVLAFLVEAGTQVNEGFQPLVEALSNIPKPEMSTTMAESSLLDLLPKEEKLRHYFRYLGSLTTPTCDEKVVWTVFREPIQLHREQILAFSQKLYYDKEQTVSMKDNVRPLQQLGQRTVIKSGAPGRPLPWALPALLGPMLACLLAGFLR
T5 sequence (P00915 whole entry): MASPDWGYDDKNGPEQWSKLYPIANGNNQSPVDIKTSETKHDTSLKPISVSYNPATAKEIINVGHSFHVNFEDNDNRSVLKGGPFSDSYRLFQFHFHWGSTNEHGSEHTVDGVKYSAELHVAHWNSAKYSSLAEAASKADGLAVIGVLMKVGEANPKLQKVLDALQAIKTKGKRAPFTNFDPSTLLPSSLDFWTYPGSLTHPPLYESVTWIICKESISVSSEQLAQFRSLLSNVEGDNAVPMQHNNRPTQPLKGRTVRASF
T1 sequence (O43570 25-354): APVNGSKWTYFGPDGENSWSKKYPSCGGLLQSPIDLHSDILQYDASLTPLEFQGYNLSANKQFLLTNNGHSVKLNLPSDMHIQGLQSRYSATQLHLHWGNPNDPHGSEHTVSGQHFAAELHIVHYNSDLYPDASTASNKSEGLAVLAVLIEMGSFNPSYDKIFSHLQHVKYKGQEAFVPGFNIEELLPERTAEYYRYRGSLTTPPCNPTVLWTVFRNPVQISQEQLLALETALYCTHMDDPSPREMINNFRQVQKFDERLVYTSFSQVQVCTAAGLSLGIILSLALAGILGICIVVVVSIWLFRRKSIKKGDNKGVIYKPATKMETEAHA
Source text for hCA II: (§1) An Applied Photophysics stopped-flow instrument was used for assaying the CA-catalyzed CO2 hydration activity [26]. IC50 values were obtained from dose response curves working at seven different concentrations of test compound; by fitting the curves using PRISM (http://www.graphpad.com/) and nonlinear least squares methods, values represent the mean of at least three different determinations as described by us previously [27]. The inhibition constants (K i) were then derived by using the Cheng-Prusoff equation [28] as follows: K i = IC50/(1 + [S]/K m), where [S] represents the CO2 concentration at which the measurement was carried out and K m is the concentration of substrate at which the enzyme activity is at half maximal. All enzymes used were recombinant, produced in E. coli as reported earlier [29, 30].
Source text for hCA IV: as §1
Source text for hCA IX: as §1
Source text for hCA XII: as §1
Source text for hCA XIV: An Applied Photophysics stopped-flow instrument was used for assaying the CA-catalyzed CO2 hydration activity [26]. IC50 values were obtained from dose response curves working at seven different concentrations of test compound; by fitting the curves using PRISM (http://www.graphpad.com/) and nonlinear least squares methods, values represent the mean of at least three different determinations as described by us previously [27]. The inhibition constants (K i) were then derived by using the Cheng-Prusoff equation [28] as follows: K i = IC50/(1 + [S]/K m), where [S] represents the CO2 concentration at which the measurement was carried out and K m is the concentration of substrate at which the enzyme activity is at half maximal.

In the case of `COc1c(Br)cc(/C=C/C(=O)NCCCNCCCCN)cc1Br` [Polyamine 2, ianthelliformisamine B], the pKi at hCA XII was 5.46; on hCA II, 6.43; at hCA XIV, 5.64; at hCA IX, 6.46; on hCA I it was 6.11; on hCA IV it was 5.04.

As for `COc1c(Br)cc(/C=C/C(=O)NCCCNCCCCNCCCN)cc1Br` [Polyamine 1, ianthelliformisamine A], the pKi was 5.55 on hCA XII; 6.39 on hCA II; 5.67 on hCA XIV; 6.70 on hCA IX; 5.75 on hCA I; 5.17 on hCA IV. Besides, the “MIC against Pseudomonas aeruginosa” value in the assay on Pseudomonas aeruginosa is 35 µM (≈ 18.2 µg/mL). In addition, the pIC50 in the assay with Pseudomonas aeruginosa (read-out: IC50 against Pseudomonas aeruginosa) was 5.17.

Turning to spermatinamine [Polyamine 4], the pKi is under 4.70 at hCA XII; 6.32 at hCA II; 5.57 on hCA XIV; 6.47 on hCA IX; 6.07 on hCA I; under 4.70 on hCA IV. For the same compound, the pIC50 in assay [1] was 6.64.

Regarding `COc1c(Br)cc(/C=C/C(=O)NCCCNCCCCNCCCNC(=O)/C=C/c2cc(Br)c(OC)c(Br)c2)cc1Br` [Polyamine 3, ianthelliformisamine C], the pKi on hCA XII is 5.46; at hCA II it was 6.46; at hCA XIV, 5.16; at hCA IX it was 6.57; at hCA I, 6.07; on hCA IV, 5.04.

In the case of `O=C(NCCCCNCCCNC(=O)c1ccc(O)c(O)c1)c1ccc(O)c(O)c1` [Polyamine 5, pistillarin], the pKi was 5.38 at hCA XII; 6.47 on hCA II; 5.82 on hCA XIV; 6.44 on hCA IX; 6.10 on hCA I; 5.15 on hCA IV. In assay [1], the pIC50 is 5.72.
